Laboratory results: ChEMBL document CHEMBL1135247, “Benzimidazoles and isosteric compounds as potent and selective factor Xa inhibitors” (Bioorg Med Chem Lett, 2002)

What was measured:
Coagulation factor X [1] = biological target: T1, Coagulation factor X (Homo sapiens, UniProt P00742); experiment: Inhibition of Coagulation factor Xa
Prothrombin = Prothrombin (Homo sapiens, UniProt P00734); experiment: Tested for inhibitory activity against thrombin
[2] = biological target: Vitamin K-dependent protein C (Homo sapiens, UniProt P04070); experiment: Tested for inhibitory activity against Activated protein C
[3] = biological target: Tissue-type plasminogen activator (Homo sapiens, UniProt P00750); experiment: Tested for inhibitory activity against Tissue plasminogen activator
Serine protease 1 = Serine protease 1 (Homo sapiens, UniProt P07477); experiment: Tested for inhibitory activity against trypsin
Plasminogen = Plasminogen (Homo sapiens, UniProt P00747); experiment: Tested for inhibitory activity against plasmin
Coagulation factor X [4] = biological target: T1, Coagulation factor X; experiment: Tested for inhibitory activity against Coagulation factor Xa
Coagulation factor X [5] = biological target: T1, Coagulation factor X; experiment: Tested for inhibitory against Coagulation factor Xa at a concentration of 3.9 uM

Sequence of Serine protease 1 (P07477 whole entry): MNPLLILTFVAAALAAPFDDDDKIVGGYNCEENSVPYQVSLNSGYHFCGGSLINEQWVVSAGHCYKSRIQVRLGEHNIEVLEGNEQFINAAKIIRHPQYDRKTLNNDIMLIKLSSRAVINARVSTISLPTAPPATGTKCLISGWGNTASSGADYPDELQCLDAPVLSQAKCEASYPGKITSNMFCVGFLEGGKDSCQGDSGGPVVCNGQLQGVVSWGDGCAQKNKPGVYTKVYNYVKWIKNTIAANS
Sequence of Plasminogen (P00747 97-580 limits assumed): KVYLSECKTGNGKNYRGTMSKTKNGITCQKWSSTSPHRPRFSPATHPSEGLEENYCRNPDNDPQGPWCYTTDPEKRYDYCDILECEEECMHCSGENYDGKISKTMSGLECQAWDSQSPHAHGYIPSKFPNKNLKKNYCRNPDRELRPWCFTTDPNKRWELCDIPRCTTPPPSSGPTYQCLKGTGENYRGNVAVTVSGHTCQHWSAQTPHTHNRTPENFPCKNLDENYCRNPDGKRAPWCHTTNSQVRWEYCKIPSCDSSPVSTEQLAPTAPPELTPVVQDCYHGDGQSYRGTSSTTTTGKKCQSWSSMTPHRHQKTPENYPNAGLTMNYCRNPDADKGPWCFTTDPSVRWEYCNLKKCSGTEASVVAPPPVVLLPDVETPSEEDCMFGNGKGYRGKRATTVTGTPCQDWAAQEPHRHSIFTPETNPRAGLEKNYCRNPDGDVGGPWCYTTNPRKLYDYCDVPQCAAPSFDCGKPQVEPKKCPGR
Sequence of Plasminogen (P00747 581-810 limits assumed): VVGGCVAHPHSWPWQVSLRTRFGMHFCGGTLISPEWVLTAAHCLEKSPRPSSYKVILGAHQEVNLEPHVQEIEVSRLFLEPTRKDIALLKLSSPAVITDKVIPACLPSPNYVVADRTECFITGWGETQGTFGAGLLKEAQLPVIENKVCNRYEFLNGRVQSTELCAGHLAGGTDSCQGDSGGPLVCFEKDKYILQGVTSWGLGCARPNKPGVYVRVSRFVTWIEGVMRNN
Sequence of Vitamin K-dependent protein C (P04070 43-197 limits assumed): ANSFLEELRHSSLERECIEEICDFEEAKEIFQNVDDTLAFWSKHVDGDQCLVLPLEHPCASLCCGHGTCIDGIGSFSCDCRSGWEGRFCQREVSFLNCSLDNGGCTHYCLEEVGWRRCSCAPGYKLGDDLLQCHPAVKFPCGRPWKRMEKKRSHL
Sequence of Vitamin K-dependent protein C (P04070 212-461 limits assumed): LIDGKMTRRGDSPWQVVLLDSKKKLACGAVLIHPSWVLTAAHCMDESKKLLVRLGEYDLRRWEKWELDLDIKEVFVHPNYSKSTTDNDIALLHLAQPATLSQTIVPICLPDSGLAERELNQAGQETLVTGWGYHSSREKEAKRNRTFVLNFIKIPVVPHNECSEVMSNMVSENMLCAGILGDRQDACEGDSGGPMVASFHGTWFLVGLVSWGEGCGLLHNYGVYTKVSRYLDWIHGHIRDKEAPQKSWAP
Sequence of Tissue-type plasminogen activator (P00750 whole entry): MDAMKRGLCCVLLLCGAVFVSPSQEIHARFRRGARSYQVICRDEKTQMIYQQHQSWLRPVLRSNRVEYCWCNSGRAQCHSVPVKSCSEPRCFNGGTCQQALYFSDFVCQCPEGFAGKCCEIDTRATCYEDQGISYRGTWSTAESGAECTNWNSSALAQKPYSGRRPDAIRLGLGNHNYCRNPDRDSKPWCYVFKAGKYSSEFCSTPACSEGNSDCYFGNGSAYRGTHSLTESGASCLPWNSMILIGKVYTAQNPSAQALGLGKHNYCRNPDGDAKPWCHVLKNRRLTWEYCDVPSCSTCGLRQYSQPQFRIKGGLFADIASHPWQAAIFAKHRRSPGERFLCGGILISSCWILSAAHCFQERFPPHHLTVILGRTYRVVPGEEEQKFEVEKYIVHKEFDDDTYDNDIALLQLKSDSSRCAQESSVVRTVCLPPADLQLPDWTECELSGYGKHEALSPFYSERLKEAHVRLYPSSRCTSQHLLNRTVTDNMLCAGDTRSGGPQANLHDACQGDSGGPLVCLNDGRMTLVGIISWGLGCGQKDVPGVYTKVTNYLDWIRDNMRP
T1 sequence (P00742 41-179 limits assumed): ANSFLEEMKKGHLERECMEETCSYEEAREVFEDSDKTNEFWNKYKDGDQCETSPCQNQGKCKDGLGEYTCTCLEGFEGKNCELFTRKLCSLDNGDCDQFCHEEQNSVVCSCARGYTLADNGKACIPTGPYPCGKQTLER
T1 sequence (P00742 235-488 limits assumed): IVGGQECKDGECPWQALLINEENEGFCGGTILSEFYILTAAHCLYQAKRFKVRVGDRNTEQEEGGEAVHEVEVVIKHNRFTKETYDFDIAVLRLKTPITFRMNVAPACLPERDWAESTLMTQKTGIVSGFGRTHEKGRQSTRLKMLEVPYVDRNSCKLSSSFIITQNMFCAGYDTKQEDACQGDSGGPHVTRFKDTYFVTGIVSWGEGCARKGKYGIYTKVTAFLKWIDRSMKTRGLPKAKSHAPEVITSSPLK

Structure (SMILES)	Ki (Coagulation factor X [1])	other results
Nc1ncnc2cc(CN3CCN(Cc4nc5cc(Cl)ccc5[nH]4)CC3)ccc12	> 1200 nM	
Nc1ncnc2cc(CN3CCN(Cc4nc5ccccc5[nH]4)CC3=O)ccc12	1200 nM	
Nc1ncnc2cc(CN3CCN(Cc4nc5ccc(Cl)cc5o4)CC3=O)ccc12	> 1200 nM	
Nc1ncnc2cc(CN3CCN(Cc4nc5cc(OC(F)(F)F)ccc5[nH]4)CC3=O)ccc12	> 1200 nM	
Nc1ncnc2cc(CN3CCN(Cc4cc5cc(Cl)ccc5[nH]4)CC3=O)ccc12	24 nM	Ki (Prothrombin): > 4000 nM; Ki [2]: > 18000 nM; Ki [3]: > 8700 nM; Ki (Serine protease 1): > 2900 nM; Ki (Plasminogen): > 7300 nM
Nc1ncnc2cc(CN3CCN(Cc4nc5ccc(Cl)cc5[nH]4)CC3=O)ccc12	10 nM	Ki (Prothrombin): > 4000 nM; Ki [2]: > 18000 nM; Ki [3]: > 8700 nM; Ki (Serine protease 1): > 2900 nM; Ki (Plasminogen): > 7300 nM; Ki (Coagulation factor X [4]): 42 nM
N=C(N)c1cccc(CN2CCN(Cc3nc4cc(Cl)ccc4[nH]3)CC2=O)c1		inhibition (Coagulation factor X [5]): 42%
Cc1ccc2nc(CN3CCN(Cc4ccc5c(N)ncnc5c4)C(=O)C3)[nH]c2c1	120 nM	
Nc1ncnc2cc(CN3CCN(Cc4cc5ccc(Cl)cc5[nH]4)CC3=O)ccc12	390 nM	
Nc1ncnc2cc(CN3CCN(Cc4nc5cc(Cl)ccc5o4)CC3=O)ccc12	1200 nM	
Cn1c(CN2CCN(Cc3ccc4c(N)ncnc4c3)C(=O)C2)nc2ccc(Cl)cc21	290 nM	
Nc1ncnc2cc(CN3CCN(Cc4nc5ccc(Cl)cc5s4)CC3=O)ccc12	> 1200 nM	
Nc1ncnc2cc(CN3CCN(Cc4nc5ccc(C(F)(F)F)cc5[nH]4)CC3=O)ccc12	> 1200 nM	
Nc1ncnc2cc(CN3CCN(S(=O)(=O)c4nc5ccc(Cl)cc5[nH]4)CC3=O)ccc12	3 nM	Ki (Prothrombin): > 4000 nM; Ki [2]: > 18000 nM; Ki [3]: > 8700 nM; Ki (Serine protease 1): > 2900 nM; Ki (Plasminogen): > 7300 nM
Nc1ncnc2cc(CN3CCN(Cc4nc5cc(Cl)c(Cl)cc5[nH]4)CC3=O)ccc12	> 1200 nM	
N=C(N)c1ccc(CN2CCN(Cc3nc4ccc(Cl)cc4[nH]3)CC2=O)cc1	40 nM	
Nc1ncnc2cc(CN3CCN(Cc4nc5ccc(Br)cc5[nH]4)CC3=O)ccc12	17 nM	
N=C(N)c1cccc(CN2CCN(Cc3nc4ccc(Cl)cc4[nH]3)CC2=O)c1	> 1200 nM	
